Like-named read-outs stand apart in the source and are kept apart here.
What was measured:
lower eyelid = conditions: rabbit, in vivo
Excerpt: On a subsequent study to Example 6, concentrations ranging from 0.5 wt. % to 2.5 wt. % were used on New-Zealand rabbits, once daily to twice weekly for 28 days.

[1] = test system: lower eyelid of the right eye
Protocol: The eye was treated with lubricants and local NSAID, and the keratitis resolved within 48 hours.

[2] = 5 μL, twice-weekly or once-daily, 3 months
[3] = test system: seborrheic blepharitis patients; conditions: cited from earlier work
[4] = test system: lower eyelid of the rabbits; conditions: rabbit, in vivo
Protocol: The composition is prepared by the combination of selenium disulfide (SeS2) in combination with Petrolatum base (and in the absence of surface acting agents). Compositions comprising various concentrations of selenium disulfide are prepared, such as 0.1 wt. %, 0.5 wt. %, 1 wt. %, 1.5 wt. %, 2 wt. %, and 2.5 wt. %.
Various compositions prepared as described above are administered to the eye or eyelid (e.g., margin thereof) of albino rabbits. Various compositions are administered to distinct cohorts using various treatment protocols, such as based on frequency of administration (e.g., once daily, twice daily, every other day, and once weekly) and volume of administration (e.g., <25 μL or >25 μL per administration). Compositions lacking selenium disulfide are administered to a separate cohort to establish a control.
Albino rabbits are evaluated, and an accurate volume of the composition is ejected from a device (e.g., micropipette) and is delivered to the lower eyelid of the rabbits (FIG. 2). […] In one example, the volume is ˜25 μL (equivalent to 20 mg in weight). The rabbits are examined daily.

rabbit dermis = conditions: in vivo; cited from earlier work

For `S=[Se]=S` [SeS2, selenium disulfide], the “ophthalmic observations compared with Example 6” value (lower eyelid) was “safer”, the “time until pain was reported” value ([1]; 2.5 wt. % SeS2 with petrolatum, 25 μL (20 mg), one healthy person) was “About 4 hours” and the “finding on clinical examination” value ([1]; 2.5 wt. % SeS2 with petrolatum, 25 μL (20 mg), multiple punctate over the center exposed part of the cornea) was “keratitis was observed”. The “time to resolution of keratitis” value ([1]; 2.5 wt. %, 25 μL, eye treated with lubricants and local NSAID) was no more than 48 h, the “safety and tolerability (independent Data Review Committee)” value (“safety and tolerability” for short) ([2]; 0.1 wt. %, nine patients) was “safe and well tolerated” and the “safety and tolerability” value ([2]; 0.5 wt. %, ten patients) was “safe and well tolerated”. The “safety and tolerability” value ([2]; 1 wt. %, nine patients) was “safe and well tolerated”, the “tolerability of ointment on the lids” value ([3]; 0.5 weight percent ointment (Abbott), all patients complained of burning of the conjunctiva (Rychener)) was “too strong” and the epithelial keratitis ([3]; human, in vivo) was 6 cases. The “epithelial keratitis persisting as long as a week” value ([3]; human, in vivo) was 1 cases, the “epithelial keratitis persisting for a matter of days” value ([3]; human, in vivo) was 2 cases and the “epithelial keratitis, transient” value ([3]; human, in vivo) was 4 cases. The “keratitis, conjunctivitis with erythematous and swollen lids” value ([3]; human, in vivo) was “Two”, the “patients developing moderately severe conjunctivitis” value ([3]; human, in vivo) was 1% and the “side effect across the studies” value ([3]; human, in vivo) was “self-limiting keratitis”. The “animals with corneal staining” value [4] was 5/6, the “clinical or microscopic findings” value [4] was “no clinical or microscopic findings” and the “signs of keratitis, including red and swollen eyelids” value [4] was “all animals showed signs of keratitis”. For the same compound, the dermal irritation (rabbit dermis) was “did not appear to be irritant to rabbit dermis”.

From patent publication US20220305052A1, “METERED DOSE FOR DISORDERS IN OR AROUND THE EYE” (Azura Ophthalmics Ltd., priority 2019, published 2022)
